Patent US9199927B2, “Guanidinobenzoic acid compound” (Astellas Pharma Inc., priority 2011, dated 2015)
Structures can show the parent of a compound that is named as a salt.

Tests used:
[1] = biological target: human recombinant trypsin (r-h trypsin) (Homo sapiens (Human), UniProt P07477); test: Inhibitory activity of trypsin enzyme (human recombinant trypsin, BZiPAR fluorescent substrate); assay type: biochemical; details: human recombinant trypsin 0.088 μg/mL, 30 minutes at room temperature
Experimental: (§1) 1. Inhibitory Activity of Trypsin Enzyme in Humans and Mice
(§2) In the experiment, human recombinant trypsin (r-h trypsin; manufactured by WAKO, cat. #206-17171) and mouse trypsin (m-trypsin; purified from the mouse small intestine contents by the present Company) were used.
(§3) The outline of the measurement method is shown below.
(§4) The compound was dissolved in dimethyl sulfoxide (DMSO), and diluted to an arbitrary concentration (A). A was 100-fold diluted with a buffer (0.1 M Tris (pH 8.0), 0.15 M NaCl, 10 mM CaCl2, 0.05% Brij38) (B). The r-h trypsin was diluted with a buffer to 0.088 μg/mL, and the m-trypsin was diluted with a buffer to 1/50 (C). […] The substrate solution of a substrate for the enzyme reaction, BZiPAR, (Rhodamine Reference Substrate) was diluted with a buffer to 5 μmol/L (D). B; 5 μL, C; 5 μL, and D; 10 μL were added to a 384-plate, and incubated at room temperature for 30 minutes. The fluorescent signals were detected with Ex/Em=497/520 using Tecan Safire Fluorometer. […] Based on the obtained inhibitory rates, IC50 values (nM) were calculated from the non-linear regression. The test was carried out in the same manner, using camostat as a control compound.
(§5) Ex in the table represents the Example No. as denoted below.

[2] = biological target: mouse trypsin (m-trypsin); test: Inhibitory activity of trypsin enzyme (mouse trypsin purified from small intestine contents, BZiPAR fluorescent substrate); assay type: biochemical; details: mouse trypsin diluted 1/50, BZiPAR substrate, 30 minutes at room temperature
Text: as §1, §2
The method to extract the trypsin from the mouse small intestine is shown below.
The small intestine contents and the gastrointestinal tract of 10 mice were suspended in PBS using Polytron and subjected to centrifugation at 15,000×g several times. The supernatant was mixed at 4° C. for 16 hours with a Benzamidine Sepharose 4 Fast Flow Resin (GE Healthcare: #17-5123-10). After washing the resin with PBS, m-trypsin was eluted with a glycine elution buffer (pH 3.0).
as §3, §4, §5

ICR mice = test: Increasing study of fecal protein concentration in mice; assay type: in vivo; details: Mus musculus, 5 mg/kg oral, feces collected 3 to 9 hours after, control = 1, read-out: protein increasing activity in feces, fold vs control
Experimental: 2. Increasing Study of Fecal Protein Concentration in Mice
For the experiment, 6-weeks old ICR mice (male) were used, and the experiment was carried out in five per group. After fasting the mice for 15 hours, the control group was forcibly orally administered with a 0.5% methyl cellulose (MC) solution, and the test drug group was forcibly orally administered (5 mg/kg) with a solution or suspension obtained by dissolving or suspending the compound in the 0.5% MC solution. The fasting was stopped immediately thereafter, free feeding (CE-2) started and then the feces were collected from after 3 hours to after 9 hours. All of the obtained feces were dissolved and suspended in 6 mL of distilled water, and centrifuged for 10 minutes at 3000 rpm. The protein concentration in the supernatant was measured by a Bradford method, and the amount of the protein in 1 g of feces was calculated by dividing the protein concentration in the feces by the total weight of feces. Further, the efficacy was investigated from the ratio to the control. For the compounds that were evaluated multiple times, the average values were calculated.
For some representative compounds, the protein increasing activities in feces are shown in Table 2, assuming a value for the control as 1. Ex in the table represents the Example No. as denoted below of the test compound.

Row | melting point [°C] | IC50 [1] [nM] | IC50 [2] [nM] | SMILES | response vs control in vivo at 5 mg/kg (ICR mice) [%]
1 | 197 |  |  | N=C(N)Nc1ccc(C(=O)Oc2ccc(CCC(=O)N(CC(=O)O)Cc3cccc(C(=O)O)c3)c(Cl)c2)cc1 (as salt: mesylate) [Example 3, 3-{[(3-{4-[(4-carbamimidamidobenzoyl)oxy]-2-chlorophenyl}propanoyl)(carboxymethyl)amino]methyl}benzoic acid mesylate] | 
2 |  | 0.49 | 0.39 | N=C(N)Nc1ccc(C(=O)Oc2ccc(CCC(=O)N(CC(=O)O)Cc3cccc(CC(=O)O)c3)c(Cl)c2)cc1 [Example 78] | 167
3 |  | 0.66 | 0.64 | CC(C)(Oc1ccc(C[C@H](NC(=O)Cc2ccc(OC(=O)c3ccc(NC(=N)N)cc3)cc2Cl)C(=O)O)cc1)C(=O)O [Example 95] | 188
4 |  | 0.54 | 0.44 | CN(C(=O)N(CC(=O)O)Cc1csc(C(=O)O)c1)c1ccc(OC(=O)c2ccc(NC(=N)N)cc2)cc1Cl [Example 111] | 201

Second part, the molecule before the results:

Row | SMILES | melting point [°C] | IC50 [1] [nM] | IC50 [2] [nM] | response vs control in vivo at 5 mg/kg (ICR mice) [%]
5 | N=C(N)Nc1ccc(C(=O)Oc2ccc3nc(C(=O)N(CC(=O)O)Cc4cccc(C(=O)O)c4)ccc3c2)cc1 [Example 4, 3-{[({6-[(4-carbamimidamidobenzoyl)oxy]quinolin-2-yl}carbonyl)(carboxymethyl)amino]methyl}benzoic acid] | 255 |  |  | 
6 | CC(C(=O)N(CC(=O)O)Cc1cccc(C(=O)O)c1)c1ccc(OC(=O)c2ccc(NC(=N)N)cc2)cc1Cl (stereo not drawn) [Example 5, 3-{[(2-{4-[(4-carbamimidamidobenzoyl)oxy]-2-chlorophenyl}propanoyl)(carboxymethyl)amino]methyl}benzoic acid] | 208 |  |  | 
7 | N=C(N)Nc1ccc(C(=O)Oc2ccc3nc(C(=O)N(CC(=O)O)Cc4csc(C(=O)O)c4)ccc3c2)cc1 [Example 80] |  | 0.21 | 0.3 | 189
8 | CC(C)(Oc1ccc(C[C@H](NC(=O)CCc2ccc(OC(=O)c3ccc(NC(=N)N)cc3)cc2Cl)C(=O)O)cc1)C(=O)O [Example 96] |  | 0.22 | 0.46 | 202
9 | C[C@H](C(=O)O)N(Cc1csc(C(=O)O)c1)C(=O)c1ccc2cc(OC(=O)c3ccc(NC(=N)N)cc3)ccc2n1 [Example 102] |  | 0.29 | 0.3 | 231
